Earlier results, collected in patent US20030232019A1, “Inhalable formulations for sustained release” (Advanced Inhalation Research, Inc., priority 2002, published 2003).

Conditions: healthy volunteers after inhalation

Substance: insulin
- time to half-maximal action (glucose infusion rate): about 30 minutes
